Measured values as given in ChEMBL document CHEMBL4507311, “Data for DCP probe A-1155463” (2021).

Key:
[1] = target: Acetylcholinesterase (Homo sapiens) (UniProt P22303); assay: Acetylcholinesterase (h) Eurofins-Cerep enzyme and uptake assay; conditions: Compound concentration 10.0 uM
[2] = target: 5-hydroxytryptamine receptor 2B (Homo sapiens) (UniProt P41595); assay: 5-HT2B (h) Eurofins-Cerep binding assay; set-up: ligand concentration 0.2 nM; conditions: filed as agonist, Compound concentration 10.0 uM
[3] = target: Cannabinoid receptor 2 (Homo sapiens) (UniProt P34972); assay: CB2 (h) Eurofins-Cerep binding assay; set-up: ligand concentration 0.8 nM; conditions: filed as agonist, Compound concentration 10.0 uM
[4] = target: T1, Alpha-2A adrenergic receptor (Homo sapiens) (UniProt P08913); assay: Alpha2A (h) Eurofins-Cerep binding assay; set-up: ligand concentration 1 nM; conditions: filed as antagonist, Compound concentration 10.0 uM
T1 sequence (whole entry): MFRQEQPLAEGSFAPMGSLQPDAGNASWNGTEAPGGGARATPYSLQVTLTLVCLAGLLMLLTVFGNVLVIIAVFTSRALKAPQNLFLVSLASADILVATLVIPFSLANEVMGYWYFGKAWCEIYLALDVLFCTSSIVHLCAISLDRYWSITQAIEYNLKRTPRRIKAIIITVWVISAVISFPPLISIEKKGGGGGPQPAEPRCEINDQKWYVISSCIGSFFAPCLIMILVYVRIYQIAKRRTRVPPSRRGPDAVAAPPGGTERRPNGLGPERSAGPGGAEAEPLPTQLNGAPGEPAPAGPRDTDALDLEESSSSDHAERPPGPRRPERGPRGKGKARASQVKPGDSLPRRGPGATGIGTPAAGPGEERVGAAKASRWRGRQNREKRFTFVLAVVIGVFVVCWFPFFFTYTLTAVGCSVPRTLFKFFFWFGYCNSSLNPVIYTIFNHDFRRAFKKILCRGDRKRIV

[5] = target: Cannabinoid receptor 1 (Homo sapiens) (UniProt P21554); assay: CB1 (h) Eurofins-Cerep binding assay; set-up: ligand concentration 0.5 nM; conditions: filed as agonist, Compound concentration 10.0 uM
[6] = target: Mu-type opioid receptor (Homo sapiens) (UniProt P35372); assay: mu (MOP) (h) Eurofins-Cerep binding assay; set-up: ligand concentration 0.5 nM; conditions: filed as agonist, Compound concentration 10.0 uM
[7] = target: Serine/threonine-protein kinase ICK (Homo sapiens) (UniProt Q9UPZ9); conditions: Compound concentration 1000.0 nM
[8] = system: Receptor-type tyrosine-protein kinase FLT3 (Homo sapiens), P36888 [R834Q]; conditions: Compound concentration 1000.0 nM
[9] = system: Epidermal growth factor receptor (Homo sapiens), P00533 [L858R]; conditions: Compound concentration 1000.0 nM
[10] = target: Serine/threonine-protein kinase 38 (Homo sapiens) (UniProt Q15208); conditions: Compound concentration 1000.0 nM
[11] = target: Cyclin-dependent kinase 13 (Homo sapiens) (UniProt Q14004); conditions: Compound concentration 1000.0 nM
[12] = target: AP2-associated protein kinase 1 (Homo sapiens) (UniProt Q2M2I8); conditions: Compound concentration 1000.0 nM
[13] = target: 5-hydroxytryptamine receptor 5A (Homo sapiens) (UniProt P47898); conditions: Compound concentration 10.0 uM
[14] = target: T2, Muscarinic acetylcholine receptor M4 (Homo sapiens) (UniProt P08173); conditions: Compound concentration 10.0 uM
T2 sequence (whole entry): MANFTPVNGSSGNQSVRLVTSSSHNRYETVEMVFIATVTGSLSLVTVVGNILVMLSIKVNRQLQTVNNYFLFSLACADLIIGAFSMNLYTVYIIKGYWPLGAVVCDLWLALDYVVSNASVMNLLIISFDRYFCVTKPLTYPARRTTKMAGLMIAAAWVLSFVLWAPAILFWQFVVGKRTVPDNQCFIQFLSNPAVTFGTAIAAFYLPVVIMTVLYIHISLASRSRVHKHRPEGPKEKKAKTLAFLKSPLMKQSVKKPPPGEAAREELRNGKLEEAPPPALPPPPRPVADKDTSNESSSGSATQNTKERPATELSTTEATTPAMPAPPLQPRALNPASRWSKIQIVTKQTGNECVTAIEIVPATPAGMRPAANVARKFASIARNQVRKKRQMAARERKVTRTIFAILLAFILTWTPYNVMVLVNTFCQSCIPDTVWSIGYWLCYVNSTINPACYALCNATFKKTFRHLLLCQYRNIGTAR

[15] = target: Uncharacterized serine/threonine-protein kinase SBK3 (Homo sapiens) (UniProt P0C264); conditions: Compound concentration 1000.0 nM
[16] = target: Non-receptor tyrosine-protein kinase TYK2 (Homo sapiens) (UniProt P29597); conditions: Compound concentration 1000.0 nM
[17] = target: MAP kinase-interacting serine/threonine-protein kinase 1 (Homo sapiens) (UniProt Q9BUB5); conditions: Compound concentration 1000.0 nM
[18] = system: Phosphatidylinositol 4,5-bisphosphate 3-kinase catalytic subunit alpha isoform (Homo sapiens), P42336 [E545K]; conditions: Compound concentration 1000.0 nM
[19] = target: Ribosomal protein S6 kinase alpha-5 (Homo sapiens) (UniProt O75582); conditions: Compound concentration 1000.0 nM
[20] = target: Cyclin-dependent kinase 4 (Homo sapiens) (UniProt P11802); conditions: Compound concentration 1000.0 nM
[21] = target: Vascular endothelial growth factor receptor 1 (Homo sapiens) (UniProt P17948); conditions: Compound concentration 1000.0 nM
[22] = target: Serine/threonine-protein kinase PAK 5 (Homo sapiens) (UniProt Q9P286); conditions: Compound concentration 1000.0 nM
[23] = target: Serine/threonine-protein kinase WNK4 (Homo sapiens) (UniProt Q96J92); conditions: Compound concentration 1000.0 nM
[24] = target: NUAK family SNF1-like kinase 1 (Homo sapiens) (UniProt O60285); conditions: Compound concentration 1000.0 nM
[25] = target: Serine/threonine-protein kinase PAK 4 (Homo sapiens) (UniProt O96013); conditions: Compound concentration 1000.0 nM
[26] = target: Serine/threonine-protein kinase PAK 1 (Homo sapiens) (UniProt Q13153); conditions: Compound concentration 1000.0 nM
[27] = target: Serine/threonine-protein kinase N1 (Homo sapiens) (UniProt Q16512); conditions: Compound concentration 1000.0 nM
[28] = target: Serine/threonine-protein kinase 24 (Homo sapiens) (UniProt Q9Y6E0); conditions: Compound concentration 1000.0 nM
[29] = target: 5-hydroxytryptamine receptor 2B (Homo sapiens) (UniProt P41595); conditions: Compound concentration 10.0 uM
[30] = target: Mast/stem cell growth factor receptor Kit (Homo sapiens) (UniProt P10721); conditions: Compound concentration 1000.0 nM
[31] = target: Receptor-type tyrosine-protein kinase FLT3 (Homo sapiens) (UniProt P36888); conditions: Compound concentration 1000.0 nM
[32] = system: Epidermal growth factor receptor (Homo sapiens), P00533 [UNDEFINED MUTATION]; conditions: Compound concentration 1000.0 nM

Chain of 5-hydroxytryptamine receptor 2B (Homo sapiens) (P41595 whole entry): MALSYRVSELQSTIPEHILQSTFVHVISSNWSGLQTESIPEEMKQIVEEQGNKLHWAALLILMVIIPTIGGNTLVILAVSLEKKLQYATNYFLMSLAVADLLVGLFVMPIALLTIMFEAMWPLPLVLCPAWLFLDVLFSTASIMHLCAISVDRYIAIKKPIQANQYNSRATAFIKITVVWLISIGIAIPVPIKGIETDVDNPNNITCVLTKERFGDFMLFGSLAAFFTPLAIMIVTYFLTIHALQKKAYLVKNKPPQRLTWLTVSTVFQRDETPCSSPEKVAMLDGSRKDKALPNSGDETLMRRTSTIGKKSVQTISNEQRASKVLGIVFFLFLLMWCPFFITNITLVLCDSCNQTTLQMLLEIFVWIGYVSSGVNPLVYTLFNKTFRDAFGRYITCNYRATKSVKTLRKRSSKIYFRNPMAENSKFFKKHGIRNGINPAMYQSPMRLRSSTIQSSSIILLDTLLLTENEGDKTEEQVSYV
Chain of Acetylcholinesterase (Homo sapiens) (P22303 whole entry): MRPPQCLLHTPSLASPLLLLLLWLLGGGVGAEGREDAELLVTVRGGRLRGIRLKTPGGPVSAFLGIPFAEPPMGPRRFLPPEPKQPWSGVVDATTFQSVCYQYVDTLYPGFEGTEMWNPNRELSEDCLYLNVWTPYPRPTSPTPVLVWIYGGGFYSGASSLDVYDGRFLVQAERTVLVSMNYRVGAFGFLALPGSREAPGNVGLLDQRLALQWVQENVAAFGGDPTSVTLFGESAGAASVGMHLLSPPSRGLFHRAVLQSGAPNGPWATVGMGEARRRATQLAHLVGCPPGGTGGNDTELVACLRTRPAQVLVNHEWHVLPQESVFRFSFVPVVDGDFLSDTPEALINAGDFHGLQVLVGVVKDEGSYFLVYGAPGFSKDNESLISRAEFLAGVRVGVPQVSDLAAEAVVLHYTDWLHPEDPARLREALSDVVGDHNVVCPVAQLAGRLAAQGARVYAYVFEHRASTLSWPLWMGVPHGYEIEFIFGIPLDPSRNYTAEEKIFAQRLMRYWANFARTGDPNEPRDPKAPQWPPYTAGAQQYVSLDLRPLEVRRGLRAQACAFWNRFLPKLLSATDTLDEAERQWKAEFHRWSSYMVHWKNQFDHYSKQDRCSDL
Chain of Cannabinoid receptor 1 (Homo sapiens) (P21554 whole entry): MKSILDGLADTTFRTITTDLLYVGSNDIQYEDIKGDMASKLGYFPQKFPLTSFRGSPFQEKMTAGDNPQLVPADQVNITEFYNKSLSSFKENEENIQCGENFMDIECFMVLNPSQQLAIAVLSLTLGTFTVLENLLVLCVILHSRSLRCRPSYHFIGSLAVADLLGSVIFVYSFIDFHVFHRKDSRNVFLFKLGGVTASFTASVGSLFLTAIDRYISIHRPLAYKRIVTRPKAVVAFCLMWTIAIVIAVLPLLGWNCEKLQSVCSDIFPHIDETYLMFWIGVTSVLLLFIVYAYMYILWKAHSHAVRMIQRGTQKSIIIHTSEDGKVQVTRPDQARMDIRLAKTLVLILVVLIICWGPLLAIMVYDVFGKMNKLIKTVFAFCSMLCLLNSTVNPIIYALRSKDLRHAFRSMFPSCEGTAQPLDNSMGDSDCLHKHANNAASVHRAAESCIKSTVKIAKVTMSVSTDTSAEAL
Chain of Cannabinoid receptor 2 (Homo sapiens) (P34972 whole entry): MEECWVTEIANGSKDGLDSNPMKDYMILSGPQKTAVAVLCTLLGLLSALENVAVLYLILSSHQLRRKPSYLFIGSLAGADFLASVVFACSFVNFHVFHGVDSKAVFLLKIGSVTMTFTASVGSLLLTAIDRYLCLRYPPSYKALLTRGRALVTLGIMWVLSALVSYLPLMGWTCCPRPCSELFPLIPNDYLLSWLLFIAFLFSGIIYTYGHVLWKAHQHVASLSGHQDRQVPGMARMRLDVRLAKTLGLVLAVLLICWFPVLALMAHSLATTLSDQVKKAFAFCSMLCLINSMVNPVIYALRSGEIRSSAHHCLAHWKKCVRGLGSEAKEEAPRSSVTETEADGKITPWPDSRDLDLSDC
Chain of Mu-type opioid receptor (Homo sapiens) (P35372 whole entry): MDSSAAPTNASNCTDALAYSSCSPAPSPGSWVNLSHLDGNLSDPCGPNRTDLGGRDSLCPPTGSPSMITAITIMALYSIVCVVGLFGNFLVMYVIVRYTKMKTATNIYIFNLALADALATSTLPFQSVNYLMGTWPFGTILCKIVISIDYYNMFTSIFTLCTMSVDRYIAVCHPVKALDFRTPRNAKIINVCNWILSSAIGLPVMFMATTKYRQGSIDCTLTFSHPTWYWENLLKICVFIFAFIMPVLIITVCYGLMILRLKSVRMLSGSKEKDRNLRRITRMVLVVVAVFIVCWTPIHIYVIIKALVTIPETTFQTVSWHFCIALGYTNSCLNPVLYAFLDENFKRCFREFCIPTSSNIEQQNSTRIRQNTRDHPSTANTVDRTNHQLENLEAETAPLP
Chain of NUAK family SNF1-like kinase 1 (Homo sapiens) (O60285 whole entry): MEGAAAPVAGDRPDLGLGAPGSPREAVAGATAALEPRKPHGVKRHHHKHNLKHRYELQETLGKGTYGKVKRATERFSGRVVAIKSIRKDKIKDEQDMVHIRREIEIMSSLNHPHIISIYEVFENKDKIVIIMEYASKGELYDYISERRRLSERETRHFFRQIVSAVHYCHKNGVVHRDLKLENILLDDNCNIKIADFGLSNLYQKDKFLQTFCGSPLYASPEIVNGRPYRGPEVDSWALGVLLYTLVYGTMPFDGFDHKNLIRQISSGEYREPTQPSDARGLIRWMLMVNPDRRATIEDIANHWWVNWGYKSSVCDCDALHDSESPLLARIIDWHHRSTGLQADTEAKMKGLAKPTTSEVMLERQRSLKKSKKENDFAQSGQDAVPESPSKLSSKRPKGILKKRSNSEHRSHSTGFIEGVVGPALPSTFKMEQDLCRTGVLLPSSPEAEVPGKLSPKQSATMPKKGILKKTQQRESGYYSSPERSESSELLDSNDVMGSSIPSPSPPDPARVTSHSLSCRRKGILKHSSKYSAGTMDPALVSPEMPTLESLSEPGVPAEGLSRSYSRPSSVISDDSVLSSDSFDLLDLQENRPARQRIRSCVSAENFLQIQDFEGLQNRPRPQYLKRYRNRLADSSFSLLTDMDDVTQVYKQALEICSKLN
Chain of Non-receptor tyrosine-protein kinase TYK2 (Homo sapiens) (P29597 whole entry): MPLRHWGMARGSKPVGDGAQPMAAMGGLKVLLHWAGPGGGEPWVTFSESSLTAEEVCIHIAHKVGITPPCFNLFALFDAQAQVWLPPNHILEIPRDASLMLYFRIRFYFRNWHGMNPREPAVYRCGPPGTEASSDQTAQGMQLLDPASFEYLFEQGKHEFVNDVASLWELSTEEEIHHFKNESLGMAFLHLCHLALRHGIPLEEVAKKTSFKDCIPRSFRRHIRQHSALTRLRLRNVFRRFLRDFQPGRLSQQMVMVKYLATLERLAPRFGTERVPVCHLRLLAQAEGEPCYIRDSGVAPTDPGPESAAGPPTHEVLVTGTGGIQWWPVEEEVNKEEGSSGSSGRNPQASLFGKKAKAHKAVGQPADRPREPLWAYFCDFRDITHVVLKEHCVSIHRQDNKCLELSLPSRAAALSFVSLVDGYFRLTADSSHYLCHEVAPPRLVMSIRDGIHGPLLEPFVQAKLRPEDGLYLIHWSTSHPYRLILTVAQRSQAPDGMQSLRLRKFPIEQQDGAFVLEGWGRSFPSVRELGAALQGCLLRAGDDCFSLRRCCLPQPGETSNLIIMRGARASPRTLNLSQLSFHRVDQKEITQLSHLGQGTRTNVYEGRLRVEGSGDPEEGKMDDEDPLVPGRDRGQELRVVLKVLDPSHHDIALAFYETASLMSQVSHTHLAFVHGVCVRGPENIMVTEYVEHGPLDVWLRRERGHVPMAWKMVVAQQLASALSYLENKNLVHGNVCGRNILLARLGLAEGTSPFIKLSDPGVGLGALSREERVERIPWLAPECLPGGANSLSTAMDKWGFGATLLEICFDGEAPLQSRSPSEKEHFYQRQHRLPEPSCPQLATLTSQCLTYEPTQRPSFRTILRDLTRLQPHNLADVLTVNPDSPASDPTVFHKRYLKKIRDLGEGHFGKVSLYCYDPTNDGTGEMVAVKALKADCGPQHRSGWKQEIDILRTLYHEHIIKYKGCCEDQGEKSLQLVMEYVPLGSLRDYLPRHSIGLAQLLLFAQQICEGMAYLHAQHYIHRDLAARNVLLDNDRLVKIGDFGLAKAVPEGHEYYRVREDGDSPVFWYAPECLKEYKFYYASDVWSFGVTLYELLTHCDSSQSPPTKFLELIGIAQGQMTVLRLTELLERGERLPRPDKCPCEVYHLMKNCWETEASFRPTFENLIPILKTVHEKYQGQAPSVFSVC
Chain of Serine/threonine-protein kinase PAK 4 (Homo sapiens) (O96013 whole entry, looked up): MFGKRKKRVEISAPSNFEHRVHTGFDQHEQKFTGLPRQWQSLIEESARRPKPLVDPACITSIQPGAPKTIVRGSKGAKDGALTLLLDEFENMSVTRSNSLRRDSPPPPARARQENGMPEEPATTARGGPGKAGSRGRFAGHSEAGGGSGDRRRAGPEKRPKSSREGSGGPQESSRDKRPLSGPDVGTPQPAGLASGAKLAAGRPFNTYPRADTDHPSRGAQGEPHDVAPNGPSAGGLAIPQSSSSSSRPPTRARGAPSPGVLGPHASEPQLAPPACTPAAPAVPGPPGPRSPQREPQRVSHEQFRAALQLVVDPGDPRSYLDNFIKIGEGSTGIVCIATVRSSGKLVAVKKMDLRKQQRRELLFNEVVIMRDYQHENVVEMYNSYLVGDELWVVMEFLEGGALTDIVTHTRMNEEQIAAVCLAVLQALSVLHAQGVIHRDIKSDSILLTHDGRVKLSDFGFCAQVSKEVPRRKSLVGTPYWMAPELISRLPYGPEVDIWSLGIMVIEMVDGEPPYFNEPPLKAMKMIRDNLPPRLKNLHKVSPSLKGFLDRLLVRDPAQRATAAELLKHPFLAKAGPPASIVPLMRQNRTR

Compound `O=C(Nc1nc2ccccc2s1)c1cccc2c1CN(c1nc(C(=O)O)c(CCOc3ccc(-n4ncc5cncnc54)cc3)s1)CC2` [A-1107969] has a % Inhibition of Control Values (Mean n=2) [1] of 14.5%, a % Inhibition of Control Specific Binding (Mean n=2) [2] of -44.2% and a % Inhibition of Control Specific Binding (Mean n=2) [3] of -9.9%. The % Inhibition of Control Specific Binding (Mean n=2) [4] was 1.9%, the % Inhibition of Control Specific Binding (Mean n=2) [5] was -4.1% and the % Inhibition of Control Specific Binding (Mean n=2) [6] was 6%.

Work on `CN(C)CC#Cc1ccc(OCCCc2sc(N3CCc4cccc(C(=O)Nc5nc6ccccc6s5)c4C3)nc2C(=O)O)c(F)c1` [A-1155463] yielded a residual activity [7] of 100%, a residual activity [8] of 100% and a residual activity [9] of 89%. The residual activity [10] was 76%, the residual activity [11] was 100% and the residual activity [12] was 91%. For the same compound, the % Inhibition of Control Values (Mean n=2) [1] was 7.1%, the inhibition [13] was -3.1% and the inhibition [14] was -3.11%. It also gave a residual activity [15] of 100%, a % Inhibition of Control Specific Binding (Mean n=2) [2] of -46.8% and a residual activity [16] of 75%. It also gave a residual activity [17] of 78%, a residual activity [18] of 95% and a residual activity [19] of 90%. For the same compound, the % Inhibition of Control Specific Binding (Mean n=2) [3] was 4.1%, the residual activity [20] was 100% and the residual activity [21] was 92%. It also gave a residual activity [22] of 91%, a residual activity [23] of 81% and a % Inhibition of Control Specific Binding (Mean n=2) [4] of 12.1%. For the same compound, the % Inhibition of Control Specific Binding (Mean n=2) [5] was 2.6%, the residual activity [24] was 80% and the residual activity [25] was 96%. For the same compound, the residual activity [26] was 98%, the residual activity [27] was 91% and the residual activity [28] was 93%. For the same compound, the inhibition [29] was 5.67%, the residual activity [30] was 97% and the residual activity [31] was 80%. For the same compound, the % Inhibition of Control Specific Binding (Mean n=2) [6] was 36.1% and the residual activity [32] was 100%.
